Columns and labels:
[1] = target: T1, G12V-mutant human KRAS (amino acid residues 1-188) (Homo sapiens, UniProt P01116, G12V); test: KRAS Binding Competition Assay (AlphaScreen; biotinylated KRpep-2d analogue), G12V; conditions: geometric mean, read-out: KRAS GMean IC50 (uM) MUTATION: G12V
T1 construct: G12V-mutant human KRAS (amino acid residues 1-188) with FLAG tag was purified from E. coli; made in house; host or cells: E. coli

[2] = target: T2, G12D-mutant human KRAS (amino acid residues 1-188) (Homo sapiens, UniProt P01116, G12D); test: KRAS Binding Disruption Assay (AlphaScreen; biotinylated KRpep-2d analogue or RAF1-RBD), G12D; conditions: KRAS G12D; geometric mean; read-out: KRAS GMean IC50 (uM) MUTATION: G12D
T2 construct: G12D or G12C-mutant human KRAS (amino acid residues 1-188) with FLAG tag; made in house; host or cells: E. coli
How it was run: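 Displacement format with mutant KRAS, biotinylated KRpep-2d analogue or RAF1-RBD (5-20 nM each) at pH 7.5 with 5 mM MgCl2.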

Row | IC50 [1] [µM] | IC50 [2] [µM] | Compound
1 | 10 to 100 | 10 to 100 | CN1CC(=O)N(Cc2nc(N3C[C@H]4CC[C@@H](C3)N4)c3cc(Cl)c(-c4c(O)cccc4F)c(F)c3n2)C1=O [P-0460, 3-((4-((1R,5S)-3,8-diazabicyclo[3.2.1]octan-3-yl)-6-chloro-8-fluoro-7-(2-fluoro-6-hydroxyphenyl)quinazolin-2-yl)methyl)-1-methylimidazolidine-2,4-dione]
2 | 0.0001 to 10 | 0.0001 to 10 | N#CCC(=O)N1[C@@H]2CC[C@H]1CN(c1nc(OCC34CCCN3CCC4)nc3c(F)c(-c4cc(O)cc5ccccc45)c(Cl)cc13)C2 [P-0461, 3-((1R,5S)-3-(6-chloro-8-fluoro-7-(3-hydroxynaphthalen-1-yl)-2-((tetrahydro-1H-pyrrolizin-7a(5H)-yl)methoxy)quinazolin-4-yl)-3,8-diazabicyclo[3.2.1]octan-8-yl)-3-oxopropanenitrile]
3 | 10 to 100 | 10 to 100 | Cc1cccc2c(O)nn(-c3ccc4c(N5C[C@H]6CC[C@@H](C5)N6)nc(OC[C@@H]5CCCN5C)nc4c3F)c12 [P-0462, 1-(4-((1R,5S)-3,8-diazabicyclo[3.2.1]octan-3-yl)-8-fluoro-2-(((S)-1-methylpyrrolidin-2-yl)methoxy)quinazolin-7-yl)-7-methyl-1H-indazol-3-ol]
4 | 0.0001 to 10 | 10 to 100 | CN1CCC[C@H]1COc1nc(N2C[C@H]3CC[C@@H](C2)N3C(=O)CC#N)c2cc(F)c(-c3cc(O)cc4ccccc34)c(F)c2n1 [P-0464, 3-((1R,5S)-3-(6,8-difluoro-7-(3-hydroxynaphthalen-1-yl)-2-(((S)-1-methylpyrrolidin-2-yl)methoxy)quinazolin-4-yl)-3,8-diazabicyclo[3.2.1]octan-8-yl)-3-oxopropanenitrile]
5 | 10 to 100 | 0.0001 to 10 | Cc1cccc2cccc(-c3ccc4c(N5C[C@H]6CC[C@@H](C5)N6)nc(OC[C@@H]5CCCN5C)nc4c3F)c12 [P-0465, 4-((1R,5S)-3,8-diazabicyclo[3.2.1]octan-3-yl)-8-fluoro-7-(8-methylnaphthalen-1-yl)-2-(((S)-1-methylpyrrolidin-2-yl)methoxy)quinazoline]
6 | 10 to 100 | 0.0001 to 10 | Fc1c(-c2c[nH]c3ccc(Cl)c(F)c23)c(Cl)cc2c(N3C[C@H]4CC[C@@H](C3)N4)nc(OCC34CCCN3CCC4)nc12 [P-0466, 4-((1R,5S)-3,8-diazabicyclo[3.2.1]octan-3-yl)-6-chloro-7-(5-chloro-4-fluoro-1H-indol-3-yl)-8-fluoro-2-((tetrahydro-1H-pyrrolizin-7a(5H)-yl)methoxy)quinazoline]
7 | 10 to 100 | 0.0001 to 10 | CN1CCC[C@H]1COc1nc(N2C[C@H]3CC[C@@H](C2)N3CC(=O)C2CCNCC2)c2ccc(-c3cc(O)cc4ccccc34)c(F)c2n1 [P-0467, 2-((1R,5S)-3-(8-fluoro-7-(3-hydroxynaphthalen-1-yl)-2-(((S)-1-methylpyrrolidin-2-yl)methoxy)quinazolin-4-yl)-3,8-diazabicyclo[3.2.1]octan-8-yl)-1-(piperidin-4-yl)ethan-1-one]
8 | 10 to 100 | 0.0001 to 10 | CN1CCC[C@H]1COc1nc(N2C[C@H]3CC[C@@H](C2)N3C(=N)N)c2ccc(-c3cc(O)cc4ccccc34)c(F)c2n1 [P-0468, (1R,5S)-3-(8-fluoro-7-(3-hydroxynaphthalen-1-yl)-2-(((S)-1-methylpyrrolidin-2-yl)methoxy)quinazolin-4-yl)-3,8-diazabicyclo[3.2.1]octane-8-carboximidamide]
9 | 100 to 1000 | 0.0001 to 10 | CN1CCC[C@H]1COc1nc(N2C[C@H]3CC[C@@H](C2)N3c2cnccn2)c2ccc(-c3cc(O)cc4ccccc34)c(F)c2n1 [P-0469, 4-(8-fluoro-2-(((S)-1-methylpyrrolidin-2-yl)methoxy)-4-((1R,5S)-8-(pyrazin-2-yl)-3,8-diazabicyclo[3.2.1]octan-3-yl)quinazolin-7-yl)naphthalen-2-ol]
10 | 10 to 100 | 100 to 1000 | CN1CCC[C@H]1COc1nc(N2C[C@H]3CC[C@@H](C2)N3C(=O)Cc2cc[nH]n2)c2ccc(-c3cc(O)cc4ccccc34)c(F)c2n1 [P-0470, 1-((1R,5S)-3-(8-fluoro-7-(3-hydroxynaphthalen-1-yl)-2-(((S)-1-methylpyrrolidin-2-yl)methoxy)quinazolin-4-yl)-3,8-diazabicyclo[3.2.1]octan-8-yl)-2-(1H-pyrazol-3-yl)ethan-1-one]
11 | 100 to 1000 | 0.0001 to 10 | CN1CCC[C@H]1COc1nc(N2C[C@H]3CC[C@@H](C2)N3CC(=O)N2CCNCC2)c2ccc(-c3cc(O)cc4ccccc34)c(F)c2n1 [P-0471, 2-((1R,5S)-3-(8-fluoro-7-(3-hydroxynaphthalen-1-yl)-2-(((S)-1-methylpyrrolidin-2-yl)methoxy)quinazolin-4-yl)-3,8-diazabicyclo[3.2.1]octan-8-yl)-1-(piperazin-1-yl)ethan-1-one]
12 | 0.0001 to 10 | 0.0001 to 10 | CN1CCC[C@H]1COc1nc(N2C[C@H]3CC[C@@H](C2)N3CC(O)CO)c2ccc(-c3cc(O)cc4ccccc34)c(F)c2n1 (stereo partly drawn) [P-0472, 3-((1R,5S)-3-(8-fluoro-7-(3-hydroxynaphthalen-1-yl)-2-(((S)-1-methylpyrrolidin-2-yl)methoxy)quinazolin-4-yl)-3,8-diazabicyclo[3.2.1]octan-8-yl)propane-1,2-diol]
13 | 100 to 1000 | 100 to 1000 | COc1ccc2c(-c3c(F)cc4c(N5C[C@H]6CC[C@@H](C5)N6)nc(OC[C@@H]5CCCN5C)nc4c3F)c[nH]c2c1 [P-0473, 4-((1R,5S)-3,8-diazabicyclo[3.2.1]octan-3-yl)-6,8-difluoro-7-(6-methoxy-1H-indol-3-yl)-2-(((S)-1-methylpyrrolidin-2-yl)methoxy)quinazoline]
14 | 10 to 100 | 0.0001 to 10 | Cc1c(-c2c(F)cc3c(N4C[C@H]5CC[C@@H](C4)N5)nc(OC[C@@H]4CCCN4C)nc3c2F)cccc1C(F)(F)F [P-0474, 4-((1R,5S)-3,8-diazabicyclo[3.2.1]octan-3-yl)-6,8-difluoro-7-(2-methyl-3-(trifluoromethyl)phenyl)-2-(((S)-1-methylpyrrolidin-2-yl)methoxy)quinazoline]
15 | 10 to 100 | 0.0001 to 10 | CN1CCC[C@H]1COc1nc(N2C[C@H]3CC[C@@H](C2)N3CC(=O)Nc2ccccn2)c2ccc(-c3cc(O)cc4ccccc34)c(F)c2n1 [P-0475, 2-((1R,5S)-3-(8-fluoro-7-(3-hydroxynaphthalen-1-yl)-2-(((S)-1-methylpyrrolidin-2-yl)methoxy)quinazolin-4-yl)-3,8-diazabicyclo[3.2.1]octan-8-yl)-N-(pyridin-2-yl)acetamide]
16 | 10 to 100 | 0.0001 to 10 | Fc1c(-c2c(C(F)(F)F)ccc3[nH]ncc23)ccc2c(N3C[C@H]4CC[C@@H](C3)N4)nc(OCC34CCCN3CCC4)nc12 [P-0506, 4-((1R,5S)-3,8-diazabicyclo[3.2.1]octan-3-yl)-8-fluoro-2-((tetrahydro-1H-pyrrolizin-7a(5H)-yl)methoxy)-7-(5-(trifluoromethyl)-1H-indazol-4-yl)quinazoline]
17 | 0.0001 to 10 | 0.0001 to 10 | CCc1cccc2[nH]cc(-c3ccc4c(N5C[C@H]6CC[C@@H](C5)N6)nc(OC[C@@]56CCCN5C[C@H](F)C6)nc4c3F)c12 [P-0511, 4-((1R,5S)-3,8-diazabicyclo[3.2.1]octan-3-yl)-7-(4-ethyl-1H-indol-3-yl)-8-fluoro-2-(((2R,7aS)-2-fluorotetrahydro-1H-pyrrolizin-7a(5H)-yl)methoxy)quinazoline]
18 | 100 to 1000 | 10 to 100 | Nc1cc(-c2c(F)cc3c(N4C[C@H]5CC[C@@H](C4)N5)nc(OCC45CCCN4CCC5)nc3c2F)ccc1Cl [P-0609, 5-(4-((1R,5S)-3,8-diazabicyclo[3.2.1]octan-3-yl)-6,8-difluoro-2-((tetrahydro-1H-pyrrolizin-7a(5H)-yl)methoxy)quinazolin-7-yl)-2-chloroaniline]
19 | 100 to 1000 | 0.0001 to 10 | Fc1c(-c2c[nH]c3ccc(C(F)(F)F)cc23)ccc2c(N3C[C@H]4CC[C@@H](C3)N4)nc(OCC34CCCN3CCC4)nc12 [P-0610, 4-((1R,5S)-3,8-diazabicyclo[3.2.1]octan-3-yl)-8-fluoro-2-((tetrahydro-1H-pyrrolizin-7a(5H)-yl)methoxy)-7-(5-(trifluoromethyl)-1H-indol-3-yl)quinazoline]
20 | 100 to 1000 | 10 to 100 | CC(C)(C)c1ccc2[nH]cc(-c3ccc4c(N5C[C@H]6CC[C@@H](C5)N6)nc(OCC56CCCN5CCC6)nc4c3F)c2c1 [P-0611, 4-((1R,5S)-3,8-diazabicyclo[3.2.1]octan-3-yl)-7-(5-(tert-butyl)-1H-indol-3-yl)-8-fluoro-2-((tetrahydro-1H-pyrrolizin-7a(5H)-yl)methoxy)quinazoline]
21 | 10 to 100 | 0.0001 to 10 | OCC1(COc2nc(N3C[C@H]4CC[C@@H](C3)N4)c3ccc(-c4cc(O)cc5ccccc45)c(F)c3n2)CCOCC1 [P-0612, 4-(4-((1R,5S)-3,8-diazabicyclo[3.2.1]octan-3-yl)-8-fluoro-2-((4-(hydroxymethyl)tetrahydro-2H-pyran-4-yl)methoxy)quinazolin-7-yl)naphthalen-2-ol]
22 | 10 to 100 | 0.0001 to 10 | OCC1(COc2nc(N3C[C@H]4CC[C@@H](C3)N4)c3ccc(-c4cc(O)cc5ccccc45)c(F)c3n2)COC1 [P-0613, 4-(4-((1R,5S)-3,8-diazabicyclo[3.2.1]octan-3-yl)-8-fluoro-2-((3-(hydroxymethyl)oxetan-3-yl)methoxy)quinazolin-7-yl)naphthalen-2-ol]
